Laboratory results published in patent US20180362488A1, “STEREOISOMER OF FLOCOUMAFEN, COMPOSITION AND RODENTICIDE BAIT COMPRISING SAME, AND METHOD FOR CONTROLLING TARGET RODENT PESTS” (priority 2015, published 2018).

Format: in vivo, Sprague-Dawley rats
Conditions: compared with enantiomer E4 and flocoumafen
Description: The configurational stereoisomers of flocoumafen are separated by high-pressure liquid chromatography using a LUX® Cellulose-4 chiral column (00F-4490-B0, Phenomenex, Le Pecq, France) as stationary phase and a mixture formed from acetonitrile (A) and water comprising 0.1% by volume of formic acid (B), with an AB volume ratio of 92/8, as mobile phase with a flow rate of the liquid mobile phase in the chromatography column of 0.25 mL/minute. 1 μL of extract to be analysed at a concentration of 1 μg/mL of acetonitrile is injected. Detection is performed by tandem mass spectrometry (MS/MS) in negative electrospray ionization (ESI) mode. The temperature of the nebulizer gas is 350° C. and its flow rate is 8 L/minute. The pressure of the nebulizer gas is brought to 2700 hPa. In particular, the MRM (“Multiple Reaction Monitoring”) transitions m/z 541.1→382.1 and m/z 541.1→161, corresponding to the flocoumafen signal, are analysed.
About 0.525 g (±0.025 g) of rat liver is weighed out accurately and placed in a 50 mL polypropylene tube. 10 mL of acetone are added and the suspension is homogenized using an Ultra-Turrax® homogenizer/disperser for a time of about 30 seconds. The homogenizer/disperser shaft is rinsed with hot water and then twice with 20 mL of acetone in a polypropylene tube. The homogenate is centrifuged for 5 minutes at a centrifugation speed of 3000 rpm (revolutions per minute). […]

O=c1oc2ccccc2c(O)c1C1CC(c2ccc(OCc3ccc(C(F)(F)F)cc3)cc2)Cc2ccccc21 (single isomer, unassigned) [Enantiomer E2]
Persistence in the liver of the male and female rats: lower than the persistence of enantiomer E4 of said diastereoisomer D1,4 and lower than the persistence of flocoumafen
